Test results as given in patent US20210393793A1, “AXL-SPECIFIC ANTIBODIES FOR TREATMENT OF NON-SMALL CELL LUNG CANCER” (priority 2018, published 2021).
“Also recorded” adds a separate entry of the source.

Experiments:
[1] = system: patients with solid tumors; test: Phase I dose escalation: DLTs, MTD, RP2D, adverse events; assay type: in vivo, human
Source text: The present study was an open label, multi-center Phase I/IIa safety trial of HuMax AXL ADC in a mixed population of patients with solid tumors known from the literature to overexpress Axl and where the use of systemic tubulin inhibitors is part of Standard of Care (SoC). The trial consisted of two parts; a dose escalation part (phase I, first-in-human (FIH)) and an expansion part (phase IIa).
The dose escalation part consists of two, staggered, arms for identification of the most optimal dosing regimen: • 1Q3W: Dosing once every 3 weeks • 3Q4W: Weekly dosing for 3 weeks followed by one treatment-free week.
The 1Q3W dose escalation evaluated HuMax-AXL-ADC at seven main dose levels: 0.3, 0.6, 1.0, 1.5, 2.0, 2.4 and 2.8 mg/kg, and 4 optional intermediate dose levels 1.25, 1.8, 2.2 and 2.6 mg/kg. Further escalation with steps of 0.4 mg/kg and de-escalation by 0.2 mg/kg was allowed, if the MTD had not been declared at a dose level up to 2.8 mg/kg.
In the 1Q3W dose escalation the patients received 1 infusion of HuMax-AXL-ADC every three weeks as according to FIG. 2.
The 3Q4W dose escalation was conducted as a standard 3 (+3) design which evaluatedHuMax-AXL-ADC at doses of (0.45), 0.6, 0.8, 1.0, 1.2 and 1.4 mg/kg. The escalation was allowed to continue to higher dose levels with increments up to 20%, if the 1.4 mg/kg was reached without significant safety concerns and it was considered safe to escalate above 1.4 mg/kg, the. The starting dose was expected to be 0.6 mg/kg (a dose level of 0.45 mg/kg could be added) and as an additional precaution, the independent Data Monitoring Committee (DMC) could recommend intermediate dose levels at any step during dose escalation.
In the 3Q4W dose escalation the patients received weekly dosing for 3 weeks followed by one treatment-free week according to FIG. 3. Patients were treated until disease progression or unacceptable toxicity was observed.
(§1) Primary Endpoints • Dose Limiting Toxicities (DLTs) • Adverse events (AEs): incidences of AEs, serious adverse events (SAEs), infusion-related AEs, grade 3 AEs, and AEs related to IMP during the trial.

[2] = system: non-small cell lung andenocarcinoma patients; test: Subject examples: treatment emerging events; assay type: in vivo, human; conditions: listed as enapotamab vendotin
Source text: as §1

[3] = Phase I dose escalation: PK parameters; assay type: in vivo, human; conditions: across doses/schedules
Source text: (§2) Secondary Endpoints • Safety laboratory parameters (hematology and biochemistry). • PK parameters (clearance, volume of distribution and area-under-the-concentration-time curve [AUC0-Clast and AUC0-∞], maximum concentration [Cmax], time of Cmax [Tmax], pre dose values, and half-life of HuMax-AXL-ADC and free toxin monomethyl auristatin E [MMAE]). • Immunogenicity of HuMax-AXL-ADC (anti-drug antibodies). • Anti-tumor activity measured by tumor shrinkage (based on computerized tomography [CT]-scan evaluations), as well as change in CA 125 in patients with ovarian cancer and change in prostate specific antigen (PSA) in patients with castration-resistant prostate cancer (CRPC). • Objective Response, Progression-Free Survival (PFS), Duration of Response (DoR) and Overall survival (OS). • Axl expression in the tumor biopsy.

[4] = system: non-small cell lung andenocarcinoma; test: Subject examples: tumor assessments by scan (RECIST 1.1); assay type: in vivo, human
Protocol: (§3) Response in solid tumor cancers was assessed in accordance with the RECIST criteria version 1.1^18 and for patients with ovarian cancer according to RECIST 1.1 in combination with CA 125 as defined by the Gynecological Cancer Intergroup^2.
Tumor shrinkage (based on CT-scan evaluations) was listed and summarized, per source (radiologist, central read).

cynomolgus monkeys = test: Toxicokinetic and toxicology data in cynomolgus monkeys; assay type: in vivo
[5] = system: patients with solid tumors; test: Dose escalation: anti-tumor response (RECIST v1.1); assay type: in vivo, human; conditions: for patients with a partial response: 1Q3W arm
Source text: as §2, §3
In the dose escalation, response evaluation was performed by the investigator and sponsor. In the expansion, response evaluation was performed by the investigator and sponsor as well as a group of external medical experts. Each patient was assigned one of the following categories:
Patients in response categories 1 and 2 were considered responders and patients in response categories 4 and 5 were considered as failing to respond to treatment (disease progression). Patients in response categories 1, 2 and 3 were considered to be in disease control.

[6] = system: EGFR mutated NSCLC patients; test: Expansion cohort 1: response (RECIST v1.1); assay type: in vivo, human
Source text: (§4) Patients had to meet all of the following inclusion criteria before they will be allowed to participate in the trial: • 1. For the dose escalation part: Patients with relapsed or refractory cancer of the ovary, cervix, endometrium, thyroid, non-small cell lung cancer (NSCLC), or melanoma (cutaneous, mucosal, acral or uveal melanoma) who have failed available standard therapy or who are not candidates for standard therapy, and for whom, in the opinion of the investigator, experimental therapy with HuMax-AXL-ADC may be beneficial. • For the expansion part: Patients with relapsed or refractory, advanced and/or metastatic cancer who were not candidates for standard therapy, and for whom, in the opinion of the investigator, experimental therapy with HuMax-AXL-ADC could be beneficial. […] Cohorts 1 and 2 included non-small cell lung cancer patients who had failed anticancer therapy as follows: • Expansion Cohort 1 (NSCLC patients with classical sensitizing EGFR mutations and/or other EGFR resistance mutations targeted by third generation TKIs (e.g. T790M for osimertinib)): • NSCLC patients after failure of up to 4 prior treatment regimens containing systemic therapy for metastatic disease • adjuvant and maintenance treatment is considered being part of one treatment regimen. • Documented progressive disease on or after last prior treatment • Last prior treatment to enrolment to GCT1021-01 should have been: • an EGFR inhibitor (e.g. Erlotinib, Osimertinib, etc.), • or a PD-1/PD-L1 inhibitor, • or a platinum-based doublet chemotherapy. • Expansion Cohort 2 (NSCLC patients without sensitizing EGFR mutations or ALK rearrangements) • NSCLC patients after failure of up to 4 prior treatment regimens containing systemic therapy for metastatic disease. • adjuvant and maintenance treatment is considered being part of one treatment regimen. • Documented progressive disease on or after last prior treatment. • Last prior treatment to enrolment to GCT1021-01 should have been • a PD-1/PD-L1 inhibitor. • or a chemotherapy (containing platinum, and/or taxane, and/or pemetrexed, and/or gemcitabine). • For the following conditions in Expansion Cohorts 1-2, the sponsor medical officer's approval of enrolment was needed: • if documented progression had not been on measurable disease (i.e. symptomatic progression). • if last prior treatment to enrolment was a combination therapy which contained an EGFR inhibitor or a PD-1/PD-L1 inhibitor. • if last prior treatment to enrolment contain chemotherapies other than platinum, and/or taxane, and/or pemetrexed, and/or gemcitabine (only applicable for NSCLC patients without sensitizing EGFR mutations or ALK rearrangements). • 2. […] In the dose escalation part all patients were required provide a tumor tissue sample (Formalin Fixed Paraffin Embedded blocks/slides) from archival tissue or fresh biopsy collected before Cycle 1, Visit 1, preferably derived from advanced disease stage. In the expansion part all patients were required to provide a fresh biopsy (aspirates were not acceptable) taken after failure/stop of last prior treatment. Furthermore the latest available tumor tissue sample had to be collected if available. • 4. Age 18 years. • 5. […]

[7] = system: NSCLC patients without sensitizing EGFR mutations or ALK rearrangements; test: Expansion cohort 2: response (RECIST v1.1); assay type: in vivo, human
Source text: as §4, with “5. Have an acceptable renal function defined as: • Glomerular filtration rate (GFR)≥40 mL/min/1.73 m^2—e.g., according to the abbreviated Modification of Diet in Renal Disease (MDRD) equation: GFR=186×(SCr^−1.154)×(age^−0.203)(where SCr, the serum creatinine level, is expressed in mg/dL; multiply it by 0.742 if the patient was female; multiply it by 1.212, if the patient was African-American^3). • Not being on dialysis. • 6. Have an acceptable liver function defined as: • Alanine aminotransferase (ALT) and aspartate aminotransferase (AST)≤3 times the ULN; if liver tumor/metastases were present, then ≤5×ULN was allowed. • Bilirubin≤1.5×ULN, except in patients diagnosed with Gilbert's syndrome, direct bilirubin≤2×ULN. • 7.” for “5.”

[8] = 34 patients treated in expansion
[9] = 36 patients treated with 2.2 mg/kg (escalation+expansion)
[10] = of 34 patients treated in expansion
[11] = of 36 patients treated with 2.2 mg/kg (escalation+expansion)

For Enapotamab vedotin [HuMax-AXL-ADC], the “Maximum Tolerated Dose (MTD)” value ([1]; 1Q3W arm) was 2.2 mg/kg, the “Recommended Phase 2 Dose (RP2D)” value ([1]; 1Q3W dosing regime) was 2.2 mg/kg and the “Maximum Tolerated Dose (MTD)” value ([1]; 3Q4W arm) was 1.0 mg/kg. For the same substance, the “number of DLTs” value ([1]; 47 patients enrolled) was 6, the “Adverse Effects (any grade): constipation” value ([1]; % of 47 patients) was 57% and the “Adverse Effects (any grade): decreased appetite” value ([1]; % of 47 patients) was 43%. For the same substance, the “Adverse Effects (any grade): diarrhea” value ([1]; % of 47 patients) was 47%, the “Adverse Effects (any grade): fatigue” value ([1]; % of 47 patients) was 64% and the “Adverse Effects (any grade): nausea” value ([1]; % of 47 patients) was 57%. For the same substance, the “Adverse Effects (any grade): vomiting” value ([1]; % of 47 patients) was 45%, the “Treatment emerging events (grade, relatedness)” value ([2]; Subject 401) was “urinary tract infection (G2, unrelated); also recorded: creatinine kinase increase (fluctuating between G1 and G2, possibly related); also recorded: muscle cramps (G1, possibly related); also recorded: worsening of cough (G2, unrelated); also recorded: ALT increase and AST increase (both G1 and unrelated); also recorded: dysphonia and left leg weakness, both events reported as G1 and possibly related” and the “Treatment emerging events (grade, relatedness)” value ([2]; Subject 403) was “two episodes of nausea (both Gland possibly related); also recorded: skin and subcutaneous tissue disorder (G1, not related); also recorded: constipation (G2, related); also recorded: two episodes of anorexia (G1, first episode unrelated, second episode possibly related); also recorded: gastroesophageal reflux (G1, not related); also recorded: alopecia (G1, related); also recorded: AST increase (G1, possibly related)”. For the same substance, the median elimination half-life [3] was 22 to 52.8 h, the “decrease in sum of diameters compared to screening” value (shortened to “decrease in sum of diameters”) ([4]; Subject 401, C2D15) was 15% and the “sum of diameters of target lesions” value ([4]; Subject 401, C2D15, screening 26 mm) was 22 mm. For the same substance, the “decrease in sum of diameters” value ([4]; Subject 401, C4D15) was 34.6%, the “sum of diameters of target lesions” value ([4]; Subject 401, C4D15, screening 26 mm) was 17 mm and the “decrease in sum of diameters” value ([4]; Subject 401, C6D15) was 57.6%. For the same substance, the “sum of diameters of target lesions” value ([4]; Subject 401, C6D15, screening 26 mm) was 11 mm, the “decrease in sum of diameters” value ([4]; Subject 403, C2D15) was 19.3% and the “sum of diameters of target lesions” value ([4]; Subject 403, C2D15, screening 88 mm) was 71 mm. The “decrease in sum of diameters” value ([4]; Subject 403, C4D15) was 35.2%, the “decrease in sum of diameters” value ([4]; Subject 403, C6D15) was 36.4% and the “sum of diameters of target lesions” value ([4]; Subject 403, second post-baseline scan (C4D15), screening 88 mm) was 57 mm. For the same substance, the “sum of diameters of target lesions” value ([4]; Subject 403, third post-baseline scan (C6D15), screening 88 mm) was 56 mm, the “decrease in sum of diameters” value ([4]; Subject 406, C2D15) was 46.8% and the “sum of diameters of target lesions” value ([4]; Subject 406, C2D15, screening 32 mm) was 17 mm. The “recovery of neutrophils, thrombocytes and red blood cell parameters” value (cynomolgus monkeys; cynomolgus monkey, in vivo) was “adequate recovery”, the safety profile (cynomolgus monkeys; cynomolgus monkeys) was “acceptable safety profile” and the “patients with a partial response” value ([5]; NSCLC, 2.2 mg/kg dose) was 1. The “patients with a partial response” value ([5]; all tumor types) was “Three”, the “patients with a partial response” value ([5]; ovarian, 1.5 and 2.4 mg/kg dose levels) was 2 and the antitumor activity ([5]; single agent, pre-treated patients with solid tumors) was “encouraging preliminary antitumor activity”. The “Disease Control Rate (DCR)” value ([6]; 18 patients treated) was 39%, the “Objective Response Rate (unconfirmed)” value ([6]; 18 patients treated) was 5.5% and the “patients with Best Overall Response (BoR) of unconfirmed PR” value ([6]; of 18 patients treated) was 1. For the same substance, the “patients with BoR of PD” value ([6]; of 18 patients treated) was 6, the “patients with BoR of SD” value ([6]; of 18 patients treated) was 6 and the DCR [7, 8] was 47%. For the same substance, the “Objective Response Rate (ORR) (confirmed)” value [7, 8] was 11%, the DCR [7, 9] was 50% and the “ORR (confirmed)” value [7, 9] was 13.8%. For the same substance, the “patients with BoR of PD” value [7, 10] was 7, the “patients with BoR of SD” value [7, 10] was 12 and the “patients with BoR of confirmed PR” value [7, 10] was 4. For the same substance, the “patients with BoR of PD” value [7, 11] was 7, the “patients with BoR of SD” value [7, 11] was 13 and the “patients with BoR of confirmed PR” value [7, 11] was 5.
